The values that follow come from ChEMBL document CHEMBL5335846, “Uncovering the Power of HSCCC: Separation of Diastereomeric and Regioisomeric Styrylpyrones from the Stem Bark of Goniothalamus leiocarpus” (J Nat Prod, 2024).

The subject of data set [1] is COLO 205. Put plainly: Cytotoxicity against human COLO 205 cells assessed as inhibition of cell growth incubated for 24 hrs by MTT assay. Format: functional, cell-based. The following applies: COLO 205, 24 h.
In data set [2] the test system is LS-513. Put plainly: Cytotoxicity against human LS-513 cells assessed as inhibition of cell growth incubated for 24 hrs by MTT assay. The class given is functional, cell-based. The following applies: LS-513, 24 h.
Data set [3] relates to SW-620. Put plainly: Cytotoxicity against human SW620 cells assessed as inhibition of cell growth incubated for 24 hrs by MTT assay. The conditions noted are these: SW-620, 24 h. The class given is functional, cell-based.
Data set [4] is described as follows: Cytotoxicity against human LM3 cells assessed as inhibition of cell growth incubated for 24 hrs by MTT assay. Format: functional, cell-based. The following applies: LM3, 24 h.
The subject of data set [5] is MHCC97H. Description: Cytotoxicity against human MHCC97H cells assessed as inhibition of cell growth incubated for 24 hrs by MTT assay. Format: functional, cell-based.
Data set [6] concerns HepG2. Put plainly: Cytotoxicity against human HepG2 cells assessed as inhibition of cell growth incubated for 24 hrs by MTT assay. Format: functional, cell-based. The conditions noted are these: HepG2, 24 h.
Data set [7] in a line: Cytotoxicity against HEK293T cells assessed as inhibition of cell growth incubated for 24 hrs by MTT assay. The following applies: human. Format: toxicity, cell-based, HEK-293T.
The test system of data set [8] is Staphylococcus aureus. Description: Antibacterial activity against Staphylococcus aureus SA1199B assessed as inhibition of microbial growth. Format: functional.
The subject of data set [9] is Staphylococcus aureus. Put plainly: Synergistic antibacterial activity against Staphylococcus aureus SA1199B assessed as inhibition of microbial growth in presence of norfloxacin. The class given is functional.
Data set [10] has as its system Staphylococcus aureus. Put plainly: Synergistic antibacterial activity against Staphylococcus aureus SA1199B assessed as norfloxacin MIC. The class given is functional.
In data set [11] the test system is Staphylococcus aureus. Put plainly: Synergistic antibacterial activity against Staphylococcus aureus SA1199B assessed as fractional inhibitory concentration index in presence of norfloxacin. The class given is functional.
Data set [12] concerns the target T1, Quinolone resistance protein NorA (Staphylococcus aureus) (UniProt P0A0J7).
T1 sequence (whole entry): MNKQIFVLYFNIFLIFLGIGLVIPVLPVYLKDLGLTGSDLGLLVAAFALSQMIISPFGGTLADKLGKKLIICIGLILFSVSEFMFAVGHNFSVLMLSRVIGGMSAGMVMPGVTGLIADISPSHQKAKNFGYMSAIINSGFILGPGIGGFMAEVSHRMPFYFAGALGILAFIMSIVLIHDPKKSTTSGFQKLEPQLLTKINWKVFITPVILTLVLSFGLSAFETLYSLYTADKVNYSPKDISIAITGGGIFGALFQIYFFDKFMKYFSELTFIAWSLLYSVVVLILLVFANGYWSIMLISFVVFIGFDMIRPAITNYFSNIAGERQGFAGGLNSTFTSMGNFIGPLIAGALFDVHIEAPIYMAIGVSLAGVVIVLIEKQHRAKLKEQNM
Put plainly: Inhibition of NorA efflux pump in norfloxacin-resisitant Staphylococcus aureus SA1199B overexpressing NorA gene assessed as reduction in EtBr efflux inhibition at 25 uM incubated for 20 mins by fluorometric assay.

Data set [13] has as its system Staphylococcus aureus. Put plainly: Antibacterial activity against Staphylococcus aureus XU212 assessed as inhibition of microbial growth. The class given is functional.
Data set [14] relates to Staphylococcus aureus. Put plainly: Antibacterial activity against Staphylococcus aureus RN4220 assessed as inhibition of microbial growth. The class given is functional.
Data set [15] concerns Staphylococcus aureus. Put plainly: Synergistic antibacterial activity against Staphylococcus aureus RN4220 assessed as inhibition of microbial growth in presence of streptomycin. The class given is functional.
Data set [16] relates to Staphylococcus aureus. Put plainly: Synergistic antibacterial activity against Staphylococcus aureus XU212 assessed as inhibition of microbial growth in presence of tetracycline. The class given is functional.
For data set [17], the system named is Staphylococcus aureus. Put plainly: Synergistic antibacterial activity against Staphylococcus aureus […] assessed as streptomycin MIC. Format: functional.
The subject of data set [18] is Staphylococcus aureus. Description: Synergistic antibacterial activity against Staphylococcus aureus XU212 assessed as tetracyclin MIC. Format: functional.
In data set [19] the test system is Staphylococcus aureus. Put plainly: Synergistic antibacterial activity against Staphylococcus aureus RN4220 assessed as fractional inhibitory concentration index in presence of streptomycin. The class given is functional.
Data set [20] deals with Staphylococcus aureus. Put plainly: Additive antibacterial activity against Staphylococcus aureus XU212 assessed as fractional inhibitory concentration index in presence of tetracycline. The class given is functional.
For data set [21], the system named is Staphylococcus aureus. Put plainly: Potency index, ratio of test compound MIC to norfloxacin MIC for antibacterial activity against fluoroquinolone-resistant Staphylococcus aureus SA1199B assessed as inhibition of microbial growth. Format: functional.
The test system of data set [22] is Staphylococcus aureus. Put plainly: Antibacterial activity against fluoroquinolone-resistant Staphylococcus aureus SA1199B assessed as inhibition of microbial growth. The class given is functional.
Data set [23] deals with Staphylococcus aureus. Put plainly: Additive antibacterial activity against Staphylococcus aureus RN4220 assessed as fractional inhibitory concentration index in presence of streptomycin. The class given is functional.

Each structure is given as a SMILES string. Calls of active or inactive are those of the source. The rule behind the calls is not given here.

As to `O=c1[nH]cc(F)c(=O)[nH]1` [FLUOROURACIL], the IC50 in [1] is 32 µM; in data set [2] it was 84 µM; in [3], 43 µM.
Regarding `O=C1C=CC[C@H]([C@@H](O)[C@@H](c2ccccc2)c2c(O)cc(O)c3c2O[C@H](c2ccccc2)CC3=O)O1`, the IC50 in [4] was 82 µM; in [5], greater than 100 µM; in data set [6], 82 µM. In data set [7], the IC50 at 24 h was greater than 100 µM. The MIC is greater than 512 µg/mL in [8], 64 µg/mL in [9] and 32 µg/mL in data set [10]. In data set [11], the “fractional inhibitory concentration index (FICI)” value worked out at 0.37.
In the case of `N#CC(C#N)=NNc1cccc(Cl)c1`, in [12], the inhibition entry was “Active”.
On to `CN(C)[C@@H]1C(O)=C(C(N)=O)C(=O)[C@@]2(O)C(O)=C3C(=O)c4c(O)cccc4[C@@](C)(O)[C@H]3C[C@@H]12` [TETRACYCLINE], for which the MIC in [13] came to 128 µg/mL.
With `O=C1C=CC[C@@H]([C@@H](O)[C@@H](c2ccccc2)c2c(O)cc3c(c2O)C(=O)C[C@@H](c2ccccc2)O3)O1`, the results for the IC50 in data set [4], in [5] and in [6] were 30 µM, 63 µM and 63 µM, respectively. The IC50 at 24 h in data set [7] was 90 µM. The MIC was greater than 512 µg/mL in data set [8]; 64 µg/mL in data set [14]; greater than 512 µg/mL in data set [13]; 8 µg/mL in data set [9]; 8 µg/mL in data set [15]; 64 µg/mL in data set [16]. Besides, the minimal inhibitory concentration (MIC) turned out to be 16 µg/mL in data set [10], 8 µg/mL in [17], 128 µg/mL in data set [18] and 16 µg/mL in data set [22]. Also, the “fractional inhibitory concentration index (FICI)” value in [11] was 0.14; in data set [19], 0.37; in data set [20], 0.62. The Ratio in data set [21] was found to be 8. The inhibition result in data set [12] is “Active”.
For `O=C1C=CC[C@@H]([C@@H](O)[C@H](Oc2c(O)cc3c(c2O)C(=O)C[C@@H](c2ccccc2)O3)c2ccccc2)O1`, the IC50 in data set [4] was 21 µM; in [5], 41 µM; in data set [6], 66 µM. Moreover, in data set [7], the IC50 at 24 h is greater than 100 µM. In addition, the MIC in data set [8] is greater than 128 µg/mL; in data set [9], 16 µg/mL; in [10], 16 µg/mL; in data set [22], 16 µg/mL. Moreover, the “fractional inhibitory concentration index (FICI)” value in data set [11] is listed as 0.18. The Ratio in [21] amounted to 8.
Regarding `O=C1C=CC[C@H]([C@@H](O)[C@H](c2ccccc2)c2c(O)cc3c(c2O)C(=O)C[C@@H](c2ccccc2)O3)O1`, the IC50 was 33 µM in data set [4]; greater than 100 µM in data set [5]; greater than 100 µM in data set [6]; 2.8 µM in data set [1]; 1.6 µM in [2]; 2.6 µM in data set [3]. For the same compound, in data set [7], the IC50 at 24 h is greater than 100 µM. Further, the MIC in data set [8] is greater than 512 µg/mL; in data set [14], 64 µg/mL; in data set [13] it was greater than 512 µg/mL; in data set [9] it was 16 µg/mL; in data set [15] it was 16 µg/mL; in data set [16] it was 64 µg/mL. For the same compound, the MIC was found to be 32 µg/mL in [10], 8 µg/mL in [17] and 64 µg/mL in data set [18]. The “fractional inhibitory concentration index (FICI)” value turned out to be 0.28 in data set [11], 0.37 in data set [19] and 0.62 in [20]. Also, the Ratio in [21] worked out at 4. The inhibition result in data set [12] is “Active”.
`CNC(=O)c1cc(Oc2ccc(NC(=O)Nc3ccc(Cl)c(C(F)(F)F)c3)cc2)ccn1` [SORAFENIB]: the IC50 in data set [4] amounted to 9.2 µM; in [5], 15 µM; in data set [6], 14 µM.
As to `CCn1cc(C(=O)O)c(=O)c2cc(F)c(N3CCNCC3)cc21` [NORFLOXACIN], the MIC in [8] amounted to 128 µg/mL.
Take `CN[C@@H]1[C@H](O[C@H]2[C@H](O[C@H]3[C@H](O)[C@@H](O)[C@H](N=C(N)N)[C@@H](O)[C@@H]3N=C(N)N)O[C@@H](C)[C@]2(O)C=O)O[C@@H](CO)[C@H](O)[C@H]1O` [STREPTOMYCIN]: the MIC in data set [14] was determined as 32 µg/mL.
`O=C1C=CC[C@H]([C@@H](O)[C@H](c2ccccc2)c2c(O)cc(O)c3c2O[C@H](c2ccccc2)CC3=O)O1`: the IC50 in data set [4], in data set [5] and in [6] was greater than 100 µM in each case. Besides, the IC50 at 24 h in [7] was greater than 100 µM. For the same compound, the MIC was found to be 128 µg/mL in [8], 16 µg/mL in data set [9] and 32 µg/mL in data set [10]. The “fractional inhibitory concentration index (FICI)” value in [11] is listed as 0.37. For the same compound, the Ratio in [21] came to 4. Further, the inhibition result in data set [12] was “Active”.
With `O=C1C=CC[C@@H]([C@H](O)[C@@H](c2ccccc2)c2c(O)cc(O)c3c2O[C@H](c2ccccc2)CC3=O)O1`, the IC50 in data set [4] is greater than 100 µM; in data set [5] it was greater than 100 µM; in [6], greater than 100 µM; in data set [1], 12 µM; in [2] it was 2.4 µM; in data set [3], 3.9 µM. The IC50 at 24 h in data set [7] was greater than 100 µM. Further, the MIC in [8] is 256 µg/mL; in data set [14] it was 64 µg/mL; in data set [13], 512 µg/mL; in data set [9] it was 16 µg/mL; in data set [15] it was 16 µg/mL; in [16], 64 µg/mL. Moreover, the MIC in [10] stood at 32 µg/mL; in data set [17], 16 µg/mL; in data set [18], 64 µg/mL. Further, the “fractional inhibitory concentration index (FICI)” value in [11] stood at 0.31; in data set [23] it was 0.5; in [20], 0.62. The Ratio in data set [21] stood at 4. Moreover, the inhibition entry in data set [12] is “Active”.
Turning to `O=C1C=CC[C@H]([C@@H](O)[C@H](Oc2c(O)cc3c(c2O)C(=O)C[C@@H](c2ccccc2)O3)c2ccccc2)O1`, the IC50 in data set [4], in data set [5] and in [6] was greater than 100 µM each time. Moreover, the IC50 at 24 h in [7] is greater than 100 µM. For the same compound, the MIC in [8] was greater than 128 µg/mL; in data set [9], 32 µg/mL; in data set [10], 16 µg/mL; in [22] it was 16 µg/mL. Moreover, the “fractional inhibitory concentration index (FICI)” value in [11] is reported as 0.25. Besides, the Ratio in data set [21] amounted to 8.
For the compound `O=C1C=CC[C@H]([C@H](O)[C@H](c2ccccc2)c2c(O)cc3c(c2O)C(=O)C[C@@H](c2ccccc2)O3)O1`, the IC50 in data set [4], in [5] and in [6] was greater than 100 µM throughout. For the same compound, in [7], the IC50 at 24 h was greater than 100 µM.
